Values after ≈ are worked out from the molar mass of the structure shown.
How the values were obtained:
CT26 cells = assay: In vitro cytotoxicity in CT26 cells (CCK-8); type: cell-based, mouse
Description: Specifically, 5×10^3 CT26 cells were inoculated on 100 μL of DMEM and a Roswell Park Memorial Institute (RPMI) medium, respectively supplemented with 10% (v/v) FBS and 1% penicillin/streptomycin. […] DL and CD were also treated in the same volume and each of the concentrations. After 24 hours of the culturing, 10 μL of a WST-8 solution [2-2-methoxy-4-nitrophenyl)-3-(4-nitrophenyl)-5-(2,4-disulfophenyl)-2H-tetrazolium monosodium salt] was diluted with 100 μL of each medium, followed by culturing for 2 hours. Then, absorbance was measured using a microplate reader (PerkinElmer multimode plate reader) at 450 nm. Percentages of viable cells are shown by comparing the number of treated cells with that of untreated cells.

[1] = Pharmacokinetics of OP (platinum) in rats, repeated oral dosing; type: in vivo, SD rats
Description: After SD rats were orally administered with various concentrations of ODSF repeatedly, the rats were divided into 5 groups (4 rats per group) to evaluate pharmacokinetic properties of OP. The rats were orally administered with a daily dose of 400 μL of OP (10) (OP dispersed in water, 10 mg/kg) or ODSF (2.5), ODSF (10), and ODSF (20) (containing 2.5 mg/kg, 10 mg/kg, and 20 mg/kg OP, respectively), for 14 days. […] Plasma concentrations of OP were measured based on the platinum concentration, after decomposition with nitric acid at 100° C., by inductively coupled plasma-mass spectroscopy (ICP-MS) at a high frequency power of 1450 W, at a coolant flow rate of 12 L/min, at an axillary flow rate of 2.3 L/min, and at a nebulizer flow rate of 0.89 L/min.
Plasma profiles of not only OP in water (10 mg/kg) [OP (10)] but also ODSF including 2.5 mg/kg, 10 mg/kg, and 20 mg/kg OP [ODSF (2.5), ODSF (10), and ODSF (20), respectively] were identified after 2-week continuous metronomic administration in comparison with a single IV bolus dose of 5 mg/kg OP [OP-IV (5)] administered on day 1 and day 14.

in vivo = conditions: SD, rat
[2] = oral once a day 14 days, 10 mg/kg OP

Compound `COC(=O)[C@H](CCCCN)NC(=O)CC[C@@H](C)[C@H]1CC[C@H]2[C@@H]3CC[C@@H]4C[C@H](O)CC[C@]4(C)[C@H]3C[C@H](O)[C@]12C` [DL, N^α-deoxycholyl-I-lysyl-methylester] has a Cell viability (CT26 cells; CT26, carrier amount matching maximum SIMVA concentration of 200 μg/mL) of 77.1%.
For `O=C1[O][Pt]2([NH][C@@H]3CCCC[C@H]3[NH]2)[O]C1=O` [OP, oxaliplatin], the “AUCinf, on day 14” value ([1]; IV, 5 mg/kg OP) was 8120 ± 2470 ng·h/mL, the “AUClast, on day 14” value ([1]; IV, 5 mg/kg OP) was 5460 ± 1460 ng·h/mL and the “Cmax, on day 14” value ([1]; IV, 5 mg/kg OP) was 1060 ± 337 ng/mL. The Bioavailability ([1]; IV, 5 mg/kg OP (reference)) was 100%, the “T1/2, on day 14” value ([1]; IV, 5 mg/kg OP on day 1 and day 14, platinum, n=4) was 15.8 ± 1.32 h and the “AUCinf, on day 14” value [1, 2] was 1500 ± 196 ng·h/mL. The “AUClast, on day 14” value [1, 2] was 775 ± 124 ng·h/mL, the Bioavailability [1, 2] was 7.09 ± 1.14% and the “Cmax, on day 14” value [1, 2] was 53 ± 14 ng/mL. For the same compound, the “T1/2, on day 14” value [1, 2] was 23.7 ± 0.723 h and the “Tmax, on day 14” value [1, 2] was 0.833 ± 0.289 h.
With `CCC(C)(C)C(=O)O[C@H]1C[C@@H](C)C=C2C=C[C@H](C)[C@H](CC[C@@H]3C[C@@H](O)CC(=O)O3)[C@H]21` [SIMVA in DMSO (50), simvastatin] the half-life (in vivo; plasma, po, 50 mg/kg) was 1.22 h.
With `CCC(C)(C)C(=O)O[C@H]1C[C@@H](C)C=C2C=C[C@H](C)[C@H](CC[C@@H]3C[C@@H](O)CC(=O)O3)[C@H]21` [SIMVA, simvastatin] the IC50 (CT26 cells; Mus musculus, CT26, 24 h, read-out: IC50 (concentration of a drug required to kill 50% of cells)) was 183 µg/mL (≈ 437 µM), the half-life (in vivo; in vivo, po, 50 mg/kg) was 1.6 h and the Tmax (in vivo; plasma, po, 50 mg/kg) was 1.5 h.
In the case of `CCC(C)(C)C(=O)O[C@H]1C[C@@H](C)C=C2C=C[C@H](C)[C@H](CC[C@@H]3C[C@@H](O)CC(=O)O3)[C@H]21` [SIMVA-IP (10), simvastatin], the Tmax (in vivo; plasma, ip, 10 mg/kg) is reported as 0.5 h and the half-life (in vivo; plasma, ip, 10 mg/kg) is reported as 0.54 h.
`CCC(C)(C)C(=O)O[C@H]1C[C@@H](C)C=C2C=C[C@H](C)[C@H](CC[C@@H]3C[C@@H](O)CC(=O)O3)[C@H]21` [SIMVA-IV (10), simvastatin] showed a half-life (in vivo; plasma, iv, 10 mg/kg) of 0.39 h.
